Earlier results in US10894006B2, “Nanoparticles for the encapsulation of compounds, preparation thereof and use of same” (CENTRO NACIONAL DE TECNOLOGÍA Y SEGURIDAD ALIMENTARIA, …, priority 2010, dated 2021).
Read-outs that look alike come from different tables or passages of the source.

- solubility (in slightly alkaline aqueous solution): freely soluble
- solubility (in water): slightly soluble
SMILES: Nc1nc2ncc(CNc3ccc(C(=O)N[C@@H](CCC(=O)O)C(=O)O)cc3)nc2c(=O)[nH]1 [Non-encap FA, folic acid]
